Measurements from patent US20140357577A1, “HIV Membrane Fusion Inhibitors” (priority 2011, published 2014).
Starred links: 1 amine or outer side, 2 acyl side, 3 side chain; linkers in the order of their positions; H or OH if unused. Non-standard residues stand in square brackets, D forms with d. *: point of attachment. C(Bzl) = O=C([C@H](CSCc1ccccc1)N[*:1])[*:2]; Palmitoyl = CCCCCCCCCCCCCCCC(=O)*; Suc = O=C(CCC(=O)[*:2])[*:1]; Isovaleryl = CC(C)CC(=O)*; hCys = N[C@@H](CCS)C(=O)O; Pentanoyl = CCCCC(=O)*

Experiments:
[1] = tested on: HIV wild type virus strain IIIB; assay: Standard Anti-Viral-Experiment (AVE), HIV-1 replication assay in MT4-LTR-EGFP cells, wild type IIIB; format: cell-based; details: 3 days, EGFP signal
Outline: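 MT4-LTR-EGFP cells infected with HIV-1 IIIB, HXB2D or HXB2D gp41 mutants V38A/Q40H alongside serial 4-fold compound dilutions, 3 days at 37° C. EGFP read by laser-scanning microscopy; EC50 by linear interpolation against log concentration. Mutant results given as fold change in EC50 versus wild-type HXB2D.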

[2] = tested on: HIV mutant virus strain HXB2D with mutation V38A in the gp41 gene; assay: Standard AVE, HXB2D site directed mutant V38A; format: cell-based, HIV-1; details: fold change vs wild type strain HXB2D
Description: (§1) • Standard Anti-Viral-Experiment “AVE” (wild type HIV strain IIIB+HIV strain HXB2D side directed mutants V38A and Q40H)
(§2) The HIV-1 replication assay measures virus replication (HIV wild type virus strain 111B or HXB2D, or a HIV mutant virus strain HXB2D with mutation V38A or Q40H in the gp41 gene) as an induction of enhanced green fluorescent protein (EGFP) expression. The indicator MT4-LTR-EGFP cells contain an EGFP gene under the control of the HIV-1 LTR promoter sequence. Successful HIV-1 infection results in viral Tat protein expression and subsequent induction of EGFP expression. Compounds/peptides inhibiting HIV-1 infection are expected to reduce EGFP expression as compared to the untreated HIV-infected control.
(§3) Serial 4-fold dilutions of test compounds/peptides were mixed with HIV-1 (IIIB, HXB2D, or a HXB2D mutant virus (V38A or Q40H)) and MT4-LTR-EGFP cells and incubated at 37° C. After 3 days, the wells were examined for EGFP expression using an argon laser-scanning microscope. The effective compound/peptide concentration inhibiting 50% of the virus-induced EGFP signal (EC50) was determined by linear interpolation of the EGFP signal vs. logarithm of the compound concentration; (T20, C34 and Sifuvirtide were added as reference compounds). For the V38A and Q40H mutant viruses, results were reported as a fold change in EC50, as compared with a drug-susceptible wild type strain HXB2D, which forms the backbone of the mutant virus. • Standard AVE (50% Human Serum)

HIV-IIIB + 50% HS = assay: Standard AVE (50% Human Serum), HIV-1 replication assay in MT4-LTR-EGFP cells; format: cell-based; details: fold change vs EC50 in the assay without human serum
Outline: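 MT4-LTR-EGFP cells infected with HIV-1 alongside 4-fold serial compound dilutions in 50% human serum, 3 days at 37 °C. EGFP read by laser-scanning microscopy; EC50 by linear interpolation against log concentration, reported as fold change versus EC50 without serum.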

[3] = tested on: HIV mutant virus strain HXB2D with mutation Q40H in the gp41 gene; assay: Standard AVE, HXB2D site directed mutant Q40H; format: cell-based, HIV-1; details: fold change vs wild type strain HXB2D
Description: as §1, §2, §3

Substance	EC50 [1]	HIV-HXB2D V38A mutant (fold change in EC50) [2]	HIV-IIIB + 50% HS (Fold change in EC50) (HIV-IIIB + 50% HS)	HIV-HXB2D Q40H mutant (fold change in EC50) [3]
Ac-A[hCys]YAA[hCys]IEALIRKAQEQQEKNEAALR-NH2 (cysteine pairing not given here) [Peptide 80]	2 nM	40	2	375
Suc-ACY-Abu-ACIEALIRAAQEQQEKNEAALR-NH2 [Peptide 49]	6 nM	33	0.6	
Suc-ACYLACIEALIRA-Abu-QEQQEKNEAALR-NH2 [Peptide 47]	1 nM	17	2	261
Suc-ACYLAC)EELIRKAQEQQEKNEAALR-NH2 [Peptide 31]	1 nM	14	0.4	238
Ac-ACY-Tba-ACIEALIRAAQEQQEKNEAALR-NH2 [Peptide 60]	5 nM	18	3	
Suc-ANYLALIEALIRAAQEQQEKNEAALK(palmitoyl)-NH2 (Suc-ANYLALIEALIRAAQEQQEKNEAALK(Palmitoyl)-NH2; SMILES CCCCCCCCCCCCCCCC(=O)NCCCC[C@H](NC(=O)[C@H](CC(C)C)NC(=O)[C@H](C)NC(=O)[C@H](C)NC(=O)[C@H](CCC(=O)O)NC(=O)[C@H](CC(N)=O)NC(=O)[C@H](CCCCN)NC(=O)[C@H](CCC(=O)O)NC(=O)[C@H](CCC(N)=O)NC(=O)[C@H](CCC(N)=O)NC(=O)[C@H](CCC(=O)O)NC(=O)[C@H](CCC(N)=O)NC(=O)[C@H](C)NC(=O)[C@H](C)NC(=O)[C@H](CCCNC(=N)N)NC(=O)[C@@H](NC(=O)[C@H](CC(C)C)NC(=O)[C@H](C)NC(=O)[C@H](CCC(=O)O)NC(=O)[C@@H](NC(=O)[C@H](CC(C)C)NC(=O)[C@H](C)NC(=O)[C@H](CC(C)C)NC(=O)[C@H](Cc1ccc(O)cc1)NC(=O)[C@H](CC(N)=O)NC(=O)[C@H](C)NC(=O)CCC(=O)O)[C@@H](C)CC)[C@@H](C)CC)C(N)=O) [Peptide 13]	0.4 nM		9	9
Ac-ECYAACIEELIRKAQEQQEKNEAALR-NH2 [Peptide 53]	21 nM		0.3	>164
Suc-ENYLRLIEELIRKAQEQQEKNEAALR-NH2 (SMILES CC[C@H](C)[C@H](NC(=O)[C@H](CC(C)C)NC(=O)[C@H](CCC(=O)O)NC(=O)[C@H](CCC(=O)O)NC(=O)[C@@H](NC(=O)[C@H](CC(C)C)NC(=O)[C@H](CCCNC(=N)N)NC(=O)[C@H](CC(C)C)NC(=O)[C@H](Cc1ccc(O)cc1)NC(=O)[C@H](CC(N)=O)NC(=O)[C@H](CCC(=O)O)NC(=O)CCC(=O)O)[C@@H](C)CC)C(=O)N[C@@H](CCCNC(=N)N)C(=O)N[C@@H](CCCCN)C(=O)N[C@@H](C)C(=O)N[C@@H](CCC(N)=O)C(=O)N[C@@H](CCC(=O)O)C(=O)N[C@@H](CCC(N)=O)C(=O)N[C@@H](CCC(N)=O)C(=O)N[C@@H](CCC(=O)O)C(=O)N[C@@H](CCCCN)C(=O)N[C@@H](CC(N)=O)C(=O)N[C@@H](CCC(=O)O)C(=O)N[C@@H](C)C(=O)N[C@@H](C)C(=O)N[C@@H](CC(C)C)C(=O)N[C@@H](CCCNC(=N)N)C(N)=O) [Peptide 20]	0.7 nM		1	80
ENYLALIEALIRAAQEQQEKNEAALR [Peptide 8]	2 nM		0.4	900
Ac-ACYAACIEALIRAAQEQQEKNEAALR-NH2 [Peptide 66]	3 nM		2	231
Isovaleryl-ANYAALIEALIRAAQEQQEKNEAALR-NH2 (SMILES CC[C@H](C)[C@H](NC(=O)[C@H](CC(C)C)NC(=O)[C@H](C)NC(=O)[C@H](CCC(=O)O)NC(=O)[C@@H](NC(=O)[C@H](CC(C)C)NC(=O)[C@H](C)NC(=O)[C@H](C)NC(=O)[C@H](Cc1ccc(O)cc1)NC(=O)[C@H](CC(N)=O)NC(=O)[C@H](C)NC(=O)CC(C)C)[C@@H](C)CC)C(=O)N[C@@H](CCCNC(=N)N)C(=O)N[C@@H](C)C(=O)N[C@@H](C)C(=O)N[C@@H](CCC(N)=O)C(=O)N[C@@H](CCC(=O)O)C(=O)N[C@@H](CCC(N)=O)C(=O)N[C@@H](CCC(N)=O)C(=O)N[C@@H](CCC(=O)O)C(=O)N[C@@H](CCCCN)C(=O)N[C@@H](CC(N)=O)C(=O)N[C@@H](CCC(=O)O)C(=O)N[C@@H](C)C(=O)N[C@@H](C)C(=O)N[C@@H](CC(C)C)C(=O)N[C@@H](CCCNC(=N)N)C(N)=O) [Peptide 17]	24 nM		0.9	>37
Suc-ANYLALIEALIRAAQEQQEKNEAALR-NH2 (SMILES CC[C@H](C)[C@H](NC(=O)[C@H](CC(C)C)NC(=O)[C@H](C)NC(=O)[C@H](CCC(=O)O)NC(=O)[C@@H](NC(=O)[C@H](CC(C)C)NC(=O)[C@H](C)NC(=O)[C@H](CC(C)C)NC(=O)[C@H](Cc1ccc(O)cc1)NC(=O)[C@H](CC(N)=O)NC(=O)[C@H](C)NC(=O)CCC(=O)O)[C@@H](C)CC)C(=O)N[C@@H](CCCNC(=N)N)C(=O)N[C@@H](C)C(=O)N[C@@H](C)C(=O)N[C@@H](CCC(N)=O)C(=O)N[C@@H](CCC(=O)O)C(=O)N[C@@H](CCC(N)=O)C(=O)N[C@@H](CCC(N)=O)C(=O)N[C@@H](CCC(=O)O)C(=O)N[C@@H](CCCCN)C(=O)N[C@@H](CC(N)=O)C(=O)N[C@@H](CCC(=O)O)C(=O)N[C@@H](C)C(=O)N[C@@H](C)C(=O)N[C@@H](CC(C)C)C(=O)N[C@@H](CCCNC(=N)N)C(N)=O) [Peptide 7]	2 nM		0.6	764
Ac-A-C(Bzl)-YAALIEALIRAAQEQQEKNEAALR-NH2 ({Ac-Ala-C(Bzl)}-YAALIEALIRAAQEQQEKNEAALR-NH2; SMILES CC[C@H](C)[C@H](NC(=O)[C@H](CC(C)C)NC(=O)[C@H](C)NC(=O)[C@H](CCC(=O)O)NC(=O)[C@@H](NC(=O)[C@H](CC(C)C)NC(=O)[C@H](C)NC(=O)[C@H](C)NC(=O)[C@H](Cc1ccc(O)cc1)NC(=O)[C@H](CSCc1ccccc1)NC(=O)[C@H](C)NC(C)=O)[C@@H](C)CC)C(=O)N[C@@H](CCCNC(=N)N)C(=O)N[C@@H](C)C(=O)N[C@@H](C)C(=O)N[C@@H](CCC(N)=O)C(=O)N[C@@H](CCC(=O)O)C(=O)N[C@@H](CCC(N)=O)C(=O)N[C@@H](CCC(N)=O)C(=O)N[C@@H](CCC(=O)O)C(=O)N[C@@H](CCCCN)C(=O)N[C@@H](CC(N)=O)C(=O)N[C@@H](CCC(=O)O)C(=O)N[C@@H](C)C(=O)N[C@@H](C)C(=O)N[C@@H](CC(C)C)C(=O)N[C@@H](CCCNC(=N)N)C(N)=O) [Peptide 4]	10 nM	74	2	
Pentanoyl-ECYLRCIEELIRKAQEQQEKNEAALR-NH2 (cysteine pairing not given here) [Peptide 91]	1 nM		5	5
ENYLALIEALIRAAQEQQEKNEAALL [Peptide 9]	3 nM		0.4	1196
Ac-ECYLRCIEALIRAAQEQQEKNEAALR-NH2 [Peptide 50]	2 nM		2	33
Suc-ACYLACIEALIRAAQEQQEKNEAALR-NH2 (cysteine pairing not given here) [Peptide 43]	2 nM		1	103
